Assay results from US11530180B2, “Alpha-5 beta-1 inhibitors” (The Regents of the University of California, priority 2019, dated 2022).
pIC50: −log10 of the molar value.

Target: alpha-5-beta-1 integrin (Homo sapiens (Human), UniProt P05556+P08648)
Assay: alpha-5-beta-1 integrin cell adhesion assay (SW480 cells on human plasma fibronectin)
Type: cell-based
Method: Cell Adhesion Assay. Evaluation of cell attachment to extracellular matrix proteins was performed as previously described by Yokosaki et al, J. Biol. Chem., 271: (39): 24144-24150 (1996). Briefly, wells of non-tissue culture-treated polystyrene 96-well flat-bottom microtiter plates (Linbro/Titertek, Flow Laboratories, McLean, Va.) were coated by incubation with 100 μl of each substrate in PBS at 37° C. for 1 hour. 96-well flat-bottomed tissue culture plates were coated with human plasma fibronectin for 1 hour at 37° C. After incubation, wells were washed with PBS, then blocked with 1% bovine serum albumin (BSA) for one hour. Control wells were filled with 1% BSA. SW480 cells were detached using 10 mM EDTA and resuspended in serum-free DMEM. For blocking experiments, cells were incubated with 10 μg/ml of the antibody for 15 minutes at 4° C. before plating. The plates were centrifuged at 10 g for 5 minutes before incubation for 1 hour at 37° C. in humidified 5% CO2. Nonadherent cells were removed by centrifugation (top side down) at 10 g for 5 minutes. Attached cells were stained with 0.5% crystal violet, and the wells were washed with PBS. The relative number of cells in each well was evaluated after solubilization in 40 μl of 2% Triton X-100 by measuring absorbance at 595 nm in a microplate reader. All determinations were carried out in triplicate.
Table 2 provides the IC50 (nM) results of an alpha-5-beta-1 integrin cell adhesion assay for the compounds shown. The assay was performed following the procedures set forth in Example 1 and as described by Yokosaki et al, J. Biol. Chem., 271: (39): 24144-24150 (1996).

[1] = cell adhesion assay, SW480 cells, fibronectin-coated plates, Table 1
[2] = alpha-5-beta-1 integrin cell adhesion assay following Example 1, Table 2

Sequence of alpha-5-beta-1 integrin (P08648 42-894): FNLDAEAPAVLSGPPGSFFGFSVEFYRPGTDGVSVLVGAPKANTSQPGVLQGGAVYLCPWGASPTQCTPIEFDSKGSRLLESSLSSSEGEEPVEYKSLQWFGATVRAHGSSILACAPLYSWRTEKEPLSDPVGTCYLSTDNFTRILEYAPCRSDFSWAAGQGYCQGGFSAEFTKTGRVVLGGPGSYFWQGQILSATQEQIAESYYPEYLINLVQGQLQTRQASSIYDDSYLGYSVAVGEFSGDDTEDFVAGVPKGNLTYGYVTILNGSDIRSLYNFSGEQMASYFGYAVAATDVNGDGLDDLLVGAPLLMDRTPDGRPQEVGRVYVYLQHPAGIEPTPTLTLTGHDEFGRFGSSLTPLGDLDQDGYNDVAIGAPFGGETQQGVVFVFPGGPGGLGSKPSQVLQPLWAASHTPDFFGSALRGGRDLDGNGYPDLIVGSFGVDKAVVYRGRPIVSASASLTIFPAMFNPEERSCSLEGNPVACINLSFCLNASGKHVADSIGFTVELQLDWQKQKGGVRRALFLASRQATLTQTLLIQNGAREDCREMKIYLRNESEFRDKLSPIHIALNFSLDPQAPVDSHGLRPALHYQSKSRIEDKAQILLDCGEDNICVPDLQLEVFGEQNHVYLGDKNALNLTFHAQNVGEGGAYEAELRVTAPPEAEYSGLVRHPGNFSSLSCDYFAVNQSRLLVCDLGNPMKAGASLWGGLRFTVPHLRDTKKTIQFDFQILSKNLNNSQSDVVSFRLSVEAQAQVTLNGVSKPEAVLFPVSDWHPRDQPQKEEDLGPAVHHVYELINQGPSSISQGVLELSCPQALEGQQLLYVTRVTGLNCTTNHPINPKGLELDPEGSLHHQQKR
Sequence of alpha-5-beta-1 integrin (P08648 895-1049 partner): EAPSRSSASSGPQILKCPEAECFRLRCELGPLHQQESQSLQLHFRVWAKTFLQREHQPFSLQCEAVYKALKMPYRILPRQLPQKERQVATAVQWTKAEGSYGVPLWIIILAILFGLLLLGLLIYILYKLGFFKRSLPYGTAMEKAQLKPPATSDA
Sequence of alpha-5-beta-1 integrin (P05556 21-798): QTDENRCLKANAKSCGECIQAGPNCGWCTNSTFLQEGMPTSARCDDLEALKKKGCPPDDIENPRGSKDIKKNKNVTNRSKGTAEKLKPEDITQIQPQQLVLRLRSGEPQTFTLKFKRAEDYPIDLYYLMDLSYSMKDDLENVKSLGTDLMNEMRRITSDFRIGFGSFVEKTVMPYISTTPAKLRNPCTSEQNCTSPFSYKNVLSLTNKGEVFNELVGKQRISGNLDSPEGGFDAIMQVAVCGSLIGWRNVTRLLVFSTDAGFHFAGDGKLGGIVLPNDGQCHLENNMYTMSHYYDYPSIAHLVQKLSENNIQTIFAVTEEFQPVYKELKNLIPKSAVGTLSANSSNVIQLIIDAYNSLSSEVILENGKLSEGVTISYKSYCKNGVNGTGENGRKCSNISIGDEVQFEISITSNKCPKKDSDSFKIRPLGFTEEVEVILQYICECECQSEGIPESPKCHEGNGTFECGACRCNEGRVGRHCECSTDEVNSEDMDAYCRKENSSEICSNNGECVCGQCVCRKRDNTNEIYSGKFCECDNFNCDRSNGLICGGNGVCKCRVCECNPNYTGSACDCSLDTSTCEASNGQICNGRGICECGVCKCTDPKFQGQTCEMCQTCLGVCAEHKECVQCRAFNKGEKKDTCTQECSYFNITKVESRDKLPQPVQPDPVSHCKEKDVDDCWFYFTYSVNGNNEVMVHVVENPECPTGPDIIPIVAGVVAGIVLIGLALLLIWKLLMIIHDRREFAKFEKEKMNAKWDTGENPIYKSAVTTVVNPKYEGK

| SMILES | pIC50 [1] | pIC50 [2] |
| --- | --- | --- |
| N=C(N)Nc1cccc(C(=O)NCC(=O)NC[C@H](NC(=O)c2c(Cl)cccc2Cl)C(=O)O)c1 | > 7.00 |  |
| N=C(N)Nc1cccc(C(=O)NCC(=O)NC[C@H](NC(=O)c2c(Cl)cc(N3CCOCC3)cc2Cl)C(=O)O)c1 | > 7.00 |  |
| O=C(CNC(=O)c1cccc(NC2=NCCCN2)c1)NC[C@H](NC(=O)c1c(Cl)cccc1Cl)C(=O)O | > 7.00 |  |
| N=C(N)Nc1cccc(C(=O)NCC(=O)NC[C@H](NC(=O)c2c(Cl)cc(-c3ccccc3)cc2Cl)C(=O)O)c1 | > 7.00 |  |
| Cc1cccc(Cl)c1C(=O)N[C@@H](CNC(=O)CNC(=O)c1cccc(NC(=N)N)c1)C(=O)O | > 6.00 |  |
| N=C(N)Nc1ccc2c(c1)C(NCC(=O)NC[C@H](NC(=O)c1c(Cl)cccc1Cl)C(=O)O)CCO2 (stereo partly drawn) | > 6.00 |  |
| N=C(N)Nc1ccc2ncn(CCC(=O)NC[C@H](NC(=O)c3c(Cl)cccc3Cl)C(=O)O)c2c1 | > 5.00 |  |
| Cc1ccnc(Nc2cccc(C(=O)NCC(=O)NC[C@H](NC(=O)c3c(Cl)cccc3Cl)C(=O)O)c2)c1 | > 5.00 |  |
| N#C/N=C(\N)Nc1cccc(C(=O)NCC(=O)NC[C@@H](NC(=O)c2c(Cl)cccc2Cl)C(=O)O)c1 | > 5.00 |  |
| COc1ccc(Nc2cccc(C(=O)NCC(=O)NC[C@H](NC(=O)c3c(Cl)cccc3Cl)C(=O)O)c2)nc1 | > 4.30 |  |
| CS(=O)(=O)c1ccc(-c2cc(Cl)c(C(=O)N[C@@H](CNC(=O)CNC(=O)c3cccc(N=C(N)N)c3)C(=O)O)c(Cl)c2)cc1 [SU15210-0110-01, (S)-2-(3,5-dichloro-4′-(methylsulfonyl)biphenyl-4-ylcarboxamido)-3-(2-(3 guanidinobenzamido)acetamido)propanoic acid] |  | > 7.00 |
| O=C(CNC(=O)c1cccc(NC2=NCCCN2)c1)NC[C@H](NC(=O)c1c(Cl)cc(-c2ccccc2)cc1Cl)C(=O)O [SU15210-0147-01, (S)-2-(3,5-dichlorobiphenyl-4-ylcarboxamido)-3-(2-(3-(1,4,5,6-tetrahydropyrimidin-2-ylamino)benzamido)acetamido)propanoic acid] |  | > 7.00 |
| O=C(CCc1ccc2c(n1)NCCC2)NCC(=O)NC[C@H](NC(=O)c1c(Cl)cc(-c2ccccc2)cc1Cl)C(=O)O [SU15210-0151-01, (S)-2-(3,5-dichloro-[1,1′-biphenyl]-4-carboxamido)-3-(2-(3-(5,6,7,8-tetrahydro-1,8-naphthyridin-2-yl)propanamido)acetamido)propanoic acid] |  | 6.00 to 7.00 |
| CNc1cccc(CCC(=O)NCC(=O)NC[C@H](NC(=O)c2c(Cl)cc(-c3ccccc3)cc2Cl)C(=O)O)n1 [SU15210-0152-01, (S)-2-(3,5-dichlorobiphenyl-4-ylcarboxamido)-3-(2-(3-(6-(methylamino)pyridin-2-yl)propanamido)acetamido)propanoic acid] |  | 5.00 to 6.00 |
| C/N=C(\NC)Nc1cccc(C(=O)NCC(=O)NC[C@H](NC(=O)c2c(Cl)cc(-c3ccccc3)cc2Cl)C(=O)O)c1 [SU15210-0193-01, (S,E)-2-(3,5-dichlorobiphenyl-4-ylcarboxamido)-3-(2-(3-(2,3-dimethylguanidino)benzamido)acetamido)propanoic acid] |  | 6.00 to 7.00 |
| O=C(CNC(=O)c1cccc(NC2=NCC(F)(F)CN2)c1)NC[C@H](NC(=O)c1c(Cl)cc(-c2ccccc2)cc1Cl)C(=O)O [SU15210-0200, (S)-2-(3,5-dichlorobiphenyl-4-ylcarboxamido)-3-(2-(3-(5,5-difluoro-1,4,5,6-tetrahydropyrimidin-2-ylamino)benzamido)acetamido)propanoic acid] |  | > 7.00 |
| CN(CC(=O)NC[C@H](NC(=O)c1c(Cl)cc(-c2ccccc2)cc1Cl)C(=O)O)C(=O)c1cccc(NC(=N)N)c1 [SU15210-0202-01, (S)-2-(3,5-dichlorobiphenyl-4-ylcarboxamido)-3-(2-(3 guanidino-N-methylbenzamido)acetamido)propanoic acid] |  | 6.00 to 7.00 |
| COC(=O)[C@H](CNC(=O)CNC(=O)c1cc(C#N)cc(N/C(=N/C(=O)OC(C)(C)C)NC(=O)OC(C)(C)C)c1)NC(=O)c1c(Cl)cc(-c2ccccc2)cc1Cl [SU15210-0206-01] |  | > 7.00 |
| O=C(CNC(=O)c1cccc(NC2=NCCCS2)c1)NC[C@H](NC(=O)c1c(Cl)cc(-c2ccccc2)cc1Cl)C(=O)O [SU15210-0230-01] |  | > 7.00 |
| O=C(CNC(=O)c1cccc(NC2=NCC(F)CN2)c1)NC[C@H](NC(=O)c1c(Cl)cc(-c2ccc3cn[nH]c3c2)cc1Cl)C(=O)O (stereo partly drawn) [SU15210-0241-01, (2S)-2-(2,6-dichloro-4-(1H-indazol-6-yl)benzamido)-3-(2-(3-(5-fluoro-1,4,5,6-tetrahydropyrimidin-2-ylamino)benzamido)acetamido)propanoic acid] |  | > 7.00 |
| O=C(CNC(=O)c1cccc(NC2=NCC(F)CN2)c1)NC[C@H](NC(=O)c1c(Cl)cc(N2CCOCC2)cc1Cl)C(=O)O (stereo partly drawn) [SU15210-0248-01, (2 S)-2-(2,6-dichloro-4-morpholinobenzamido)-3-(2-(3-(5-fluoro-1,4,5,6-tetrahydropyrimidin-2-ylamino)benzamido)acetamido)propanoic acid] |  | > 7.00 |
| O=C(CNC(=O)c1cccc(NC2=NCC(F)CN2)c1)NC[C@H](NC(=O)c1c(Cl)cc(N2CCS(=O)(=O)CC2)cc1Cl)C(=O)O (stereo partly drawn) [SU15210-0253-01] |  | > 7.00 |
| C[C@@H](NC(=O)c1cccc(NC2=NCC(F)CN2)c1)C(=O)NC[C@H](NC(=O)c1c(Cl)cc(-c2ccccc2)cc1Cl)C(=O)O (stereo partly drawn) [SU15210-0254, (2S)-2-[(2,6-dichloro-4-phenyl-benzoyl)amino]-3-[[(2R)-2-[[3-[(5-fluoro-1,4,5,6-tetrahydropyrimidin-2-yl)amino]benzoyl]amino]propanoyl]amino]propanoic acid] |  | 6.00 to 7.00 |
| O=C(CNC(=O)c1cccc(NC2=NCC(F)(F)CN2)c1)NC[C@H](NC(=O)c1c(Cl)cc(N2CCOCC2)cc1Cl)C(=O)O [SU15210-0271-01, (S)-2-(2,6-dichloro-4-morpholinobenzamido)-3-(2-(3-(5,5-difluoro-1,4,5,6-tetrahydropyrimidin-2-ylamino)benzamido)acetamido)propanoic acid] |  | > 7.00 |
| O=C(CNC(=O)c1cccc(NC2=NCC(F)(F)CN2)c1)NC[C@H](NC(=O)c1c(Cl)cc(-c2ccc3cn[nH]c3c2)cc1Cl)C(=O)O [SU15210-0272-01, (S)-2-(2,6-dichloro-4-(1H-indazol-6-yl)benzamido)-3-(2-(3-(5,5-difluoro-1,4,5,6-tetrahydropyrimidin-2-ylamino)benzamido)acetamido)propanoic acid] |  | > 7.00 |
| N#C/N=C(\N)Nc1cccc(C(=O)NCC(=O)NC[C@H](NC(=O)c2c(Cl)cccc2Cl)C(=O)O)c1 [drawing 107] | > 7.00 |  |
| N#C/N=C(\N)Nc1cccc(C(=O)NCC(=O)NC[C@H](NC(=O)c2c(Cl)cccc2Cl)C(=O)O)c1 [drawing 110] | > 6.00 |  |
